US5434182A (priority 1993, dated 1995)
Values joined by “and” are separate entries in the source; they are usually repeats but may differ in a detail not shown here. Equal entries are not always repeated. “Also recorded” adds a separate entry of the source. Structures can show the parent of a compound that is named as a salt. Where two headings read alike, the source gives them in different places.

Experiments:
[1] = system: poliovirus; format: cell-based, Poliovirus type 1 strain Chat; conditions: 8 mg/ml, 37° C., 30 min; control 10^4.7 TCID50
[2] = system: HSV-1; test: microbe, parasite or virus in culture; format: cell-based, herpes simplex virus type 1 strain MacIntyre; conditions: 37° C., 30 min; for log reduction at 2000 µg/mL: 2 mg/ml
[3] = system: VSV; test: microbe, parasite or virus in culture; format: cell-based, vesicular stomatitis virus strain Indiana; conditions: for minimal effective concentration: read-out: lowest concentration which reduced the VSV titer by ≥4.0 log10 units; for antiviral effect in words: fatty acids of Table 2
[4] = system: Visna virus; test: microbe, parasite or virus in culture; format: cell-based, Visna virus strain K796; conditions: 37° C., 30 min; for log reduction at 2000 µg/mL: 2 mg/ml
[5] = system: VSV; test: microbe, parasite or virus in culture; format: cell-based, vesicular stomatitis virus; conditions: for log reduction at 5000 µM / log reduction at 10000 µM: Vesicular stomatitis virus, read-out: Log10 Reduction in VSV Titer
[6] = system: sperm; test: Spermicidal test: motility and viability of sperm in semen; format: cell-based; conditions: for coating of sperm: B, D 100 mM in semen, 30 minutes
Experimental: The fatty acids and derivatives thereof disclosed here are useful as spermicides and in the treatment of sexually transmitted diseases. […] Four samples tested were comprised as follows:
Five test tubes were prepared, one for each of Samples A to D and a Control. An amount of 0.5 ml of active semen was added to each test tube. Each of Samples A and B and the Control was at 37° C., and Samples C and D were at room temperature. The percentages of motility and viability were measured from 15 seconds to 5 minutes in the case of each of Samples A to D and from 15 seconds to 2 hours for the Control.

[7] = system: VSV; test: microbe, parasite or virus in culture; format: cell-based, vesicular stomatitis virus strain Indiana
[8] = system: VSV; test: microbe, parasite or virus in culture; format: cell-based, vesicular stomatitis virus
[9] = system: Total White Blood Cells; test: Stability of white blood cells in whole human blood to added lipid; format: cell-based; set-up: unit not given here; conditions: 15 mM, control 6.4
Text: Further testing has shown the effect of monoglyceride esters and ether on the total white blood cell concentration in whole human blood.

[10] = Human alphaherpesvirus 1, 0.5 h, read-out: Reduction of virus titer, HSV-1
[11] = Vesicular stomatitis virus, 0.5 h, read-out: Reduction of virus titer, VSV
[12] = Vesicular stomatitis virus, 0.5 h
[13] = Visna-maedi virus, 0.5 h, read-out: Reduction of virus titer, VV (visna virus)
[14] = 100 mM in semen, 5 min., Sample B 37° C., Sample D room temperature
[15] = 150 mM in semen, 3 min., Sample A 37° C., Sample C room temperature
[16] = 150 mM in semen, 5 min., Sample A 37° C., Sample C room temperature

CCCCCC/C=C\CCCCCCCC(=O)O [Palmitoleic (16:1), Palmitoleic]
reduction of poliovirus titer [1]: did not cause a significant reduction of virus titer | log reduction at 2000 µg/mL [2, 10]: ≥ 4 | log reduction at 2000 µg/mL [3, 11]: ≥ 4 | minimal effective concentration [3, 12]: 2000 µg/mL and 15000 µM | log reduction at 2000 µg/mL [4, 13]: ≥ 3.2

CCCCCC(=O)O [Caproic (6:0), Caproic]
log reduction at 10000 µg/mL [3, 11]: 0 | antiviral effect in words [3]: no or a very small antiviral effect

CCCCC/C=C\C/C=C\CCCCCCCC(=O)O [sodium salt of linoleic acid]
antiviral effect in words [3]: antiviral effects similar to those of the free acids

CCCCCCCCCC(=O)OC[C@@H](O)COP(=O)([O-])OCC[N+](C)(C)C [L-α-lysophosphatidylcholine decanoyl]
Log10 Reduction in VSV Titer [5]: 1.7 Log10 | log reduction at 5000 µM [5]: 1.7 | log reduction at 10000 µM [5]: 1

L-α-lysophosphatidylcholine caproyl
Log10 Reduction in VSV Titer ([5]; 5 mM, no sodium taurocholate): 0 Log10 | Log10 Reduction in VSV Titer ([5]; 5 mM, with 10 mM sodium taurocholate): 0 Log10 | Log10 Reduction in VSV Titer ([5]; 10 mM, no sodium taurocholate): 0 Log10 | Log10 Reduction in VSV Titer ([5]; 10 mM, with 10 mM sodium taurocholate): 0 Log10 | Log10 Reduction in VSV Titer ([5]; 15 mM, no sodium taurocholate): 0 Log10 | Log10 Reduction in VSV Titer ([5]; 15 mM, with 10 mM sodium taurocholate): 1.0 Log10

CCCCCCCC(=O)O [Caprylic (8:0), Caprylic]
log reduction at 10000 µg/mL [3, 11]: 1.8 | antiviral effect in words [3]: no or a very small antiviral effect | log reduction at 10000 µg/mL ([4]; Visna-maedi virus, 0.5 h, 10 mg/ml, read-out: Reduction of virus titer, VV (visna virus)): ≥ 3.2

CCCC(=O)O [Butyric (4:0), Butyric]
log reduction at 10000 µg/mL [3, 11]: 0 | antiviral effect in words [3]: no or a very small antiviral effect

N-dodecylsucrose
% mot. ([6]; 100 mM in semen, 15 sec., Sample B 37° C., Sample D room temperature): 17% | % mot. ([6]; 100 mM in semen, 30 sec., Sample B 37° C., Sample D room temperature): 9% | % mot. ([6]; 100 mM in semen, 1 min., Sample B 37° C., Sample D room temperature): 2% | % mot. ([6]; 100 mM in semen, 2 min., Sample B 37° C., Sample D room temperature): 0% | % mot. ([6]; 100 mM in semen, 3 min., Sample B 37° C., Sample D room temperature): 0% | % mot. [6, 14]: 0% | % via. [6, 14]: 0% | % mot. ([6]; 150 mM in semen, 15 sec., Sample A 37° C., Sample C room temperature): 0% | % mot. ([6]; 150 mM in semen, 30 sec., Sample A 37° C., Sample C room temperature): 0% | % mot. ([6]; 150 mM in semen, 1 min., Sample A 37° C., Sample C room temperature): 0% | % mot. ([6]; 150 mM in semen, 2 min., Sample A 37° C., Sample C room temperature): 0% | % mot. [6, 15]: 0% | % via. [6, 15]: 0% | % mot. [6, 16]: 0% | % via. [6, 16]: 0% | time within which 0% viability was effected ([6]; A, C 150 mM, B 100 mM in semen): ≤ 3 min | time within which sperm cells were rendered immobile ([6]; A, C 150 mM, B 100 mM in semen): ≤ 15 s | coating of sperm ([6]; A, C 150 mM, listed as Solution C): coated the sperm effectively; also recorded: most effective in this regard | coating of sperm ([6]; A, C 150 mM, listed as Solution D): did not have any coating effect at all

CCCCCCCC/C=C\CCCCCCCC(=O)OCC(O)CO (centres unmarked) [Monoolein (18:1), Monoolein]
concentration with highest antiviral activity of the concentrations tested (0.5 to 4 mg/ml) ([7]; VSV, 37° C., 30 min): 1.0 mg/ml and 2.8 mM | log reduction at 1000 µg/mL [7, 11]: 2.3

CCCCCCCCCC(=O)O [Capric (10:0), Capric]
reduction of poliovirus titer [1]: did not cause a significant reduction of virus titer | log reduction at 4000 µg/mL ([2]; Human alphaherpesvirus 1, 0.5 h, 4 mg/ml, read-out: Reduction of virus titer, HSV-1): ≥ 4 | log reduction at 4000 µg/mL [3, 11]: ≥ 4 | minimal effective concentration [3, 12]: 4000 µg/mL and 22000 µM | log reduction at 4000 µg/mL ([4]; Visna-maedi virus, 0.5 h, 4 mg/ml, read-out: Reduction of virus titer, VV (visna virus)): ≥ 3.2

CCCCCCCCCCCCCCCCCC(=O)O [Stearic (18:0), Stearic]
log reduction at 20000 µg/mL [3, 11]: 0 | antiviral effect in words [3]: no or a very small antiviral effect

CC/C=C\C/C=C\C/C=C\CCCCCCCC(=O)O [Linolenic (18:3), Linolenic]
reduction of poliovirus titer [1]: did not cause a significant reduction of virus titer | Reduction of virus titer, HSV-1 ([2]; 1 mg/ml): ≥ 4.0 log10 | Reduction of virus titer, VSV ([3]; 1 mg/ml, 37° C., 30 min): ≥ 4.0 log10 | lowest concentration which reduced the VSV titer by ≥4.0 log10 units ([3]; 37° C., 30 min): 1 mg/ml and 3.6 mM | Reduction of virus titer, VV (visna virus) ([4]; 1 mg/ml): ≥ 3.2 log10

CCCCCCCC/C=C\CCCCCCCCOC[C@@H](O)CO [1-O-Oleyl-sn-glycerol, 1-O-oleyl-sn-glycerol]
log reduction at 5000 µM ([8]; Vesicular stomatitis virus, 0.5 h, read-out: Reduction in VSV Titer, 5 mM, no sodium taurocholate, human plasma, 37° 30 min): 0 | log reduction at 10000 µM ([8]; Vesicular stomatitis virus, 0.5 h, read-out: Reduction in VSV Titer, 10 mM, no sodium taurocholate, human plasma, 37° 30 min): 0 | log reduction at 15000 µM ([8]; Vesicular stomatitis virus, 0.5 h, read-out: Reduction in VSV Titer, 15 mM, no sodium taurocholate, human plasma, 37° 30 min): 0 | antiviral activity of MG ethers relative to esters, in words ([8]; human plasma): same lack of antiviral activity as the ester

CCCCCCCCCCCCCCCC(=O)O [Palmitic (16:0), Palmitic]
log reduction at 20000 µg/mL ([2]; Human alphaherpesvirus 1, 0.5 h, 20 mg/ml, read-out: Reduction of virus titer, HSV-1): 1 | log reduction at 20000 µg/mL [3, 11]: 1 | antiviral effect in words [3]: no or a very small antiviral effect | log reduction at 20000 µg/mL ([4]; Visna-maedi virus, 0.5 h, 20 mg/ml, read-out: Reduction of virus titer, VV (visna virus)): 0.7

CCCCCCCCCCOC[C@@H](O)CO [1-O-Decyl-sn-glycerol, 1-O-decyl-sn-glycerol]
Total White Blood Cells [9]: 1.31 | Reduction in VSV titer ([8]; 5 mM, with 10 mM sodium taurocholate, human plasma, 37° 30 min): 0 Log10 | antiviral activity of MG ethers relative to esters, in words ([8]; human plasma): just as effective as the naturally occurring esters

CCCCCCCC/C=C\CCCCCCCC(=O)O [sodium salt of oleic acid]
antiviral effect in words [3]: antiviral effects similar to those of the free acids

CCCCCCCC/C=C/CCCCCCCC(=O)O [Elaidic (18:1 trans), Elaidic]
log reduction at 2000 µg/mL [3, 11]: ≥ 4 | minimal effective concentration [3, 12]: 2000 µg/mL and 7000 µM

CCCCC/C=C\C/C=C\C/C=C\C/C=C\CCCC(=O)O [Arachidonic (20:4), arachidonic acid]
reduction of poliovirus titer [1]: did not cause a significant reduction of virus titer | log reduction at 500 µg/mL [3, 11]: ≥ 4 | minimal effective concentration [3, 12]: 500 µg/mL and 1600 µM

CCCCCCCC/C=C\CCCCCCCC(=O)O [Oleic (18:1 cis), Oleic]
reduction of poliovirus titer [1]: did not cause a significant reduction of virus titer | log reduction at 2000 µg/mL [2, 10]: ≥ 4 | log reduction at 2000 µg/mL [3, 11]: ≥ 4 | minimal effective concentration [3, 12]: 2000 µg/mL and 7000 µM | log reduction at 2000 µg/mL [4, 13]: ≥ 3.2

CCCCCCCCCCCC(=O)OC[C@@H](O)COP(=O)([O-])OCC[N+](C)(C)C [L-α-Lysophosphatidylcholine lauroyl]
Log10 Reduction in VSV Titer [5]: 1.7 Log10 and 2.0 Log10 | log reduction at 5000 µM [5]: 1.2 | log reduction at 10000 µM [5]: 2
